# Measurements published in patent US20100298420A1, “Compositions and Methods for Intracellular Delivery” (Yissum, Research Development Company of the Hebrew …, priority 2001, published 2010).
# Assays:
# Assay type in all cases: cell-based
# [1] = system: Swiss albino mouse fibroblast cells (3T3); test: CLSM experiment: intracellular delivery of fluorescent probes
# Description: Subconfluent Swiss albino mouse fibroblast cells (3T3) were grown in Dulbeco's Modified Eagles Medium (DMEM) on coverslips in wells of 3.5 cm in diameter for Confocal Laser Scanning Microscopy (CLSM) and in six-well plastic plates for flow cytometric analysis. The cells were washed twice with phosphate buffered saline (PBS), adjusted to 37° C. in the incubator, and washed again. Two ml of PBS were added to each well and 50 μl of the test solution was added (Compositions I-III, control systems A-B or any compositions containing PC*, RR or D-289 listed above). […] The coverslip were observed under a Sarastro-Phibos1000 CLS microscope equipped with a 488 nm argon ion laser beam and attached to a Universal Zeiss epifluorescence microscopy with an oil immerse Planapo 63×1.4 NA objective lens. Fluorescence emission was detected above 560 nm for RR, at 527 nm for D-289 and […] for calcein.
# [2] = system: Bacillus Subtilis ATCC-6633; test: Susceptibility testing, zone of inhibition on agar; conditions: 37° C., 24 h
# Description: (§1) Various concentrations of erythromycin in sterile water (1.25, 7.5, 10, 12.5 μg/ml) The bacterial strains used were:
# (§2) Each erythromycin concentration was mixed with Composition I, Composition II and Standard solution with phosphate buffer saline (PBS, Biological Industries, Beit HaEmek Israel 1:1 by volume. 20 μl of Compositions I-II and standards containing various antibiotic concentrations was added to 6 mm wells on Petri plates containing Tryptic Soy Agar (TSA) inoculated with the microorganisms. The preparation was incubated aerobically at 37° C. for 24 h. The zone of inhibition for each sample was measured.
# [3] = system: Staphylococcus Aureus erythromycin resistant (clinical strain); test: Susceptibility testing, zone of inhibition on agar; conditions: 37° C., 24 h
# Description: as §1, §2
# [4] = system: Staphylococcus Aureus ATCC-29213; test: Susceptibility testing, zone of inhibition on agar; conditions: 37° C., 24 h, in mm
# Description: as §1, §2
# [5] = Erythromycin conc. 10 microgram/ml
SMILES,Fluorescence in the nucleus of the cell [1],"zone of inhibition at 1.25 µg/mL ([2]; ATCC6633, Erythromycin conc. 1.25 microgram/ml) [mm]","zone of inhibition at 7.5 µg/mL ([2]; ATCC6633, Erythromycin conc. 7.5 microgram/ml) [mm]","zone of inhibition at 10 µg/mL [3, 5] [mm]",zone of inhibition at 12.5 µg/mL ([3]; Erythromycin conc. 12.5 microgram/ml) [mm],Zone of inhibition ([4]; Erythromycin conc. 1.25 microgram/ml),"Zone of inhibition [4, 5]"
"CCN(CC)c1ccc(C=Cc2cc[n+](C)cc2)cc1.[I-] [Composition D-289, 4-(4-diethylamino)styryl-N-methylpyridinium iodode]",fluorescence was also observed in the nucleus,,,,,,
"CC[C@H]1OC(=O)[C@H](C)[C@@H](O[C@H]2C[C@@](C)(OC)[C@@H](O)[C@H](C)O2)[C@H](C)[C@@H](O[C@@H]2O[C@H](C)C[C@H](N(C)C)[C@H]2O)[C@](C)(O)C[C@@H](C)C(=O)[C@H](C)[C@@H](O)[C@]1(C)O [Standard, Erythromycin]",,7.83 ± 0.26,13.6 ± 0.38,0,7.67 ± 0.26,0,13.67 ± 026
